For this assay, the target named is human orexin type 2 receptor (hOX2R) (Homo sapiens (Human), UniProt O43614). Description: Measurement of orexin type 2 receptor agonist activity (Experimental Example 2-1, FLIPR TETRA, intracellular Ca2+). The assay is classed as cell-based. Conditions: CHO dhfr- cells expressing hOX2R. From the text: To obtain a cell clone stably expressing human orexin type 2 receptor, human orexin type 2 receptor cDNA was inserted into pcDNA3.1(+) plasmid vector (Invitrogen), and a plasmid DNA for expression of human orexin type 2 receptor (pcDNA3.1(+)/hOX2R) was cloned. The plasmid DNA was introduced into CHO-dhfr cell by an electroporation method, and human orexin type 2 receptor expressing clone cells were obtained by limiting dilution method by using G418 drug resistance as a selection marker.
Sequence of human orexin type 2 receptor (hOX2R) (O43614 whole entry): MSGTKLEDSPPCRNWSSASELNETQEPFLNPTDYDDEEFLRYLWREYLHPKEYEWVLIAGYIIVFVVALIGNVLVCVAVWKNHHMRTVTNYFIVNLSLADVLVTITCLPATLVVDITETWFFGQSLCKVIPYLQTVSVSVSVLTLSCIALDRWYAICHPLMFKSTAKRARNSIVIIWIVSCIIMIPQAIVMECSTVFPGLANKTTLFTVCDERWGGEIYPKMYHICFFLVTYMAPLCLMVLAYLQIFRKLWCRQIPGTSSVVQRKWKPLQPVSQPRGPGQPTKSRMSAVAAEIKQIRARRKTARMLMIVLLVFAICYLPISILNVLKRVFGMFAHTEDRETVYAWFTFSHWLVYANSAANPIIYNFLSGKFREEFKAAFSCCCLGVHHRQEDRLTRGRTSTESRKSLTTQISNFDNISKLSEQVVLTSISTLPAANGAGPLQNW
Chinese hamster ovary (CHO) dhfr-cells forcibly expressing human orexin type 2 receptor (hOX2R) were seeded in each well of Black clear bottom plate (384 wells) (Becton, Dickinson and Company) by 10,000 cells, and cultured for 16 hr in an MEM-alpha (Nikken-Bio Co., Ltd.) medium containing 100 U/ml penicillin, 100 μg/ml streptomycin, […] G418 (all above Invitrogen), and 10% fetal calf serum (Thermo), under the conditions of 37° C., 5% CO2. […] A test compound was dissolved in dimethyl sulfoxide to 10 mM, and then diluted with assay buffer 2 (20 mM HEPES, Hanks' balanced salt solution (Invitrogen), 0.1% bovine serum albumin). For the reaction, a test compound solution (10 μL) was added using Fluorescent Imaging Plate Reader TETRA (FLIPR TETRA; manufactured by Molecular Devices), a fluorescence value (excitation wavelength 488 nm, measurement wavelength 570 nm) of each well was measured every one second for 1 min, and the agonist activity was determined using the area of the fluorescence value as an indicator of intracellular Ca^2+ concentration.

Where [1] appears, read: FLIPR TETRA, Fluo-4AM, read-out: Emax (%).
Where [2] appears, read: agonist activity, 10 nM human orexin B = 100%.
Where [3] appears, read: value at 30 uM concentration, orexin B as full agonist = 100%.

Like-named read-outs stand apart in the source and are kept apart here.

Turning to `CS(=O)(=O)N[C@H]1CCCN(C(=O)C2CC2)[C@H]1CO[C@H]1C[C@@H](c2ccccc2)C1` (relative stereo) [Example 193, N-(cis-1-(cyclopropylcarbonyl)-2-(((cis-3-phenylcyclobutyl)oxy)methyl)piperidin-3-yl)methanesulfonamide], the EC50 (in general, the concentration at which the effect is half-maximal) (FLIPR TETRA, Fluo-4AM) was 300 nM. Under setting [1], the Emax (commonly the greatest response seen or fitted, relative to the assay's reference) was 88%.
Regarding `CCCNC(=O)N1CCC[C@H](NS(C)(=O)=O)[C@@H]1CO[C@H]1CC[C@@H](C(C)C)CC1` (relative stereo) [Example 100, cis-2-(((cis-4-isopropylcyclohexyl)oxy)methyl)-3-((methylsulfonyl)amino)-N-propylpiperidine-1-carboxamide], the EC50 under setting [2] is 2.2 nM. The compound further had a maximal effect (Emax) at 30 µM under setting [3] of 112%.
The compound `CCC(=O)N1CCC[C@H](NS(C)(=O)=O)[C@@H]1CO[C@H]1CC[C@@H](c2ccccc2)CC1` [Example 182, N-((2R,3S)-2-(((cis-4-phenylcyclohexyl)oxy)methyl)-1-propionylpiperidin-3-yl)methanesulfonamide] showed a half-maximal effective concentration (EC50) (FLIPR TETRA, Fluo-4AM) of 2.3 nM. For the same compound, the maximal response (Emax) under setting [1] came out at 92%.
On to `CC(=O)N1CCC[C@H](NS(C)(=O)=O)[C@@H]1CO[C@H]1CC[C@@H](c2ccccc2OC(F)(F)F)CC1` (relative stereo) [Example 293, N-(cis-1-acetyl-2-(((cis-4-(2-(trifluoromethoxy)phenyl)cyclohexyl)oxy)methyl)piperidin-3-yl)methanesulfonamide], for which the EC50 (FLIPR TETRA, Fluo-4AM) came to 540 nM. The Emax under setting [1] came out at 78%.
On to `CS(=O)(=O)N[C@H]1CCCN(C(=O)C2COC2)[C@H]1CO[C@H]1CC[C@@H](c2ccccc2)CC1` (relative stereo) [Example 120, N-(cis-1-(oxetan-3-ylcarbonyl)-2-(((cis-4-phenylcyclohexyl)oxy)methyl)piperidin-3-yl)methanesulfonamide], for which, under setting [2], a half-maximal response (EC50) required 61 nM. This compound also yielded an Emax at 30 µM under setting [3] of 96%.
The compound `CS(=O)(=O)N[C@H]1CCCN(C(=O)C2CC2)[C@H]1CO[C@H]1CC[C@@H](c2cc(F)cc(F)c2F)CC1` [Example 245, N-((2R,3S)-1-(cyclopropylcarbonyl)-2-(((cis-4-(2,3,5-trifluorophenyl)cyclohexyl)oxy)methyl)piperidin-3-yl)methanesulfonamide] returned an EC50 (FLIPR TETRA, Fluo-4AM) of 2 nM. In addition, the maximal response (Emax) under setting [1] was 97%.
The compound `CC(=O)N1CCC[C@H](NS(C)(=O)=O)[C@@H]1CO[C@H]1C[C@@H](c2ccccc2)C1` (relative stereo) [Example 114, N-(cis-1-acetyl-2-(((cis-3-phenylcyclobutyl)oxy)methyl)-piperidin-3-yl)methanesulfonamidea] came in with a concentration giving a half-maximal response (EC50) under setting [2] of 3500 nM. The Emax at 30 µM under setting [3] turned out to be 79%.
Under setting [2], “N-(2-(((cis-4-(3-fluorophenyl)cyclohexyl)oxy)methyl)pyridin-3-yl)methanesulfonamide [Example 15]” registered an EC50 of 280 nM. The same compound had an Emax under setting [3] of 105%.
In turn, `CC(=O)N1CCC[C@H](NS(=O)(=O)C(C)C)[C@@H]1CO[C@H]1CC[C@@H](C(C)C)CC1` (relative stereo) [Example 76, N-(cis-1-acetyl-2-(((cis-4-isopropylcyclohexyl)oxy)methyl)piperidin-3-yl)propane-2-sulfonamide] showed an EC50 under setting [2] of 300 nM. Under setting [3], this compound gave a maximal response (Emax) at 30 µM of 103%.
Take `CCNC(=O)N1CCC[C@H](NS(C)(=O)=O)[C@@H]1CO[C@H]1CC[C@@H](c2ccccc2C#N)CC1` (relative stereo) [Example 263, cis-2-(((cis-4-(2-cyanophenyl)cyclohexyl)oxy)methyl)-N-ethyl-3-((methylsulfonyl)amino)piperidine-1-carboxamide]: for the setting “FLIPR TETRA, Fluo-4AM”, the EC50 is 57 nM. Further, the Emax under setting [1] was found to be 88%.
For `CS(=O)(=O)N[C@H]1CCCN[C@H]1CO[C@H]1CC[C@@H](c2cc(F)cc(F)c2)CC1` [Example 7, N-((2R,3S)-2-(((cis-4-(3,5-difluorophenyl)cyclohexyl)oxy)methyl)piperidin-3-yl)methanesulfonamide], the EC50 under setting [2] was found to be 250 nM. The Emax at 30 µM under setting [3] turned out to be 100%.
Compound `CCNC(=O)N1CCC[C@H](NS(C)(=O)=O)[C@@H]1CO[C@H]1CC[C@@H](c2cccc(OC(F)(F)F)c2)CC1` (relative stereo) [Example 300, cis-N-ethyl-3-((methylsulfonyl)amino)-2-(((cis-4-(3-(trifluoromethoxy)phenyl)cyclohexyl)oxy)methyl)piperidine-1-carboxamide] came in with an EC50 (FLIPR TETRA, Fluo-4AM) of 9.7 nM. In addition, the Emax under setting [1] turned out to be 94%.
As to `CS(=O)(=O)N[C@H]1CCCN(C(=O)C2CC2)[C@H]1COC1CCN(c2cccc(F)c2Cl)CC1` (relative stereo) [Example 209, N-(cis-2-(((1-(2-chloro-3-fluorophenyl)piperidin-4-yl)oxy)methyl)-1-(cyclopropylcarbonyl)piperidin-3-yl)methanesulfonamide], the concentration for a half-maximal effect (EC50) (FLIPR TETRA, Fluo-4AM) was 1900 nM. Also, the Emax under setting [1] worked out at 89%.
For the compound `CC(C)[C@H]1CC[C@@H](OC[C@H]2[C@@H](NS(C)(=O)=O)CCCN2C(=O)C(C)(C)C)CC1` (relative stereo) [Example 53, N-(cis-1-(2,2-dimethylpropanoyl)-2-(((cis-4-isopropylcyclohexyl)oxy)methyl)piperidin-3-yl)methanesulfonamide], a half-maximal response under setting [2] (EC50) required 980 nM. The Emax at 30 µM under setting [3] was found to be 96%.
Turning to `CS(=O)(=O)N[C@H]1CCCN(C(=O)OCC(F)(F)F)[C@H]1COC1CCN(c2ncccn2)CC1` (relative stereo) [Example 286, 2,2,2-trifluoroethyl cis-3-((methylsulfonyl)amino)-2-(((1-(pyrimidin-2-yl)piperidin-4-yl)oxy)methyl)piperidine-1-carboxylate], the EC50 (FLIPR TETRA, Fluo-4AM) came to 130 nM. Further, under setting [1], the Emax came to 93%.
Compound `CS(=O)(=O)N[C@H]1CCCN(C(=O)C2CC2)[C@H]1COC1CCC(F)(c2cc(F)cc(F)c2)CC1` (relative stereo) [Example 327, N-(cis-1-(cyclopropylcarbonyl)-2-(((4-(3,5-difluorophenyl)-4-fluorocyclohexyl)oxy)methyl)-piperidin-3-yl)methanesulfonamide] gave a half-maximal effective concentration (EC50) (FLIPR TETRA, Fluo-4AM) of 2600 nM. The Emax under setting [1] came out at 86%.
The compound `CC(=O)N1CCC[C@H](NS(C)(=O)=O)[C@@H]1CO[C@H]1CC[C@@H](c2cc(F)ccc2F)CC1` (relative stereo) [Example 198, N-(cis-1-acetyl-2-(((cis-4-(2,5-difluorophenyl)cyclohexyl)oxy)methyl)piperidin-3-yl)methanesulfonamide] returned an EC50 (FLIPR TETRA, Fluo-4AM) of 56 nM. The maximal response (Emax) under setting [1] was determined as 92%.
`CCCC(=O)N1CCC[C@H](NS(C)(=O)=O)[C@@H]1CO[C@H]1CC[C@@H](C(C)C)CC1` (relative stereo) [Example 35, N-(cis-1-butyryl-2-(((cis-4-isopropylcyclohexyl)oxy)methyl)piperidin-3-yl)methanesulfonamide] yielded an EC50 under setting [2] of 93 nM. The compound further had a maximal response (Emax) at 30 µM under setting [3] of 99%.
For the compound `CC(=O)N1CCC[C@H](NS(C)(=O)=O)[C@@H]1CO[C@H]1CC[C@@H](c2c(F)ccc(F)c2F)CC1` [Example 22, N-((2R,3S)-1-acetyl-2-(((cis-4-(2,3,6-trifluorophenyl)cyclohexyl)oxy)methyl)piperidin-3-yl)methanesulfonamide], the EC50 under setting [2] is 5.3 nM. Moreover, under setting [3], the Emax at 30 µM was 98%.
`COCC(=O)N1CCC[C@H](NS(C)(=O)=O)[C@@H]1CO[C@H]1CC[C@@H](C(C)C)CC1` (relative stereo) [Example 45, N-(cis-2-(((cis-4-isopropylcyclohexyl)oxy)methyl)-1-(methoxyacetyl)piperidin-3-yl)methanesulfonamide] registered an EC50 under setting [2] of 330 nM. In addition, under setting [3], the maximal response (Emax) at 30 µM turned out to be 100%.
The compound `CC(C)[C@H]1CC[C@@H](OC[C@H]2[C@@H](NS(C)(=O)=O)CCCN2C(=O)CCO)CC1` (relative stereo) [Example 72, N-(cis-1-(3-hydroxypropanoyl)-2-(((cis-4-isopropylcyclohexyl)oxy)methyl)piperidin-3-yl)methanesulfonamide] returned a concentration giving a half-maximal response (EC50) under setting [2] of 89 nM. In addition, under setting [3], the maximal effect (Emax) at 30 µM was found to be 96%.
For `COC(=O)N1CCC[C@H](NS(C)(=O)=O)[C@@H]1CO[C@H]1CC[C@@H](c2cc(F)ccc2F)CC1` [Example 11, methyl (2R,3S)-2-(((cis-4-(2,5-difluorophenyl)cyclohexyl)oxy)methyl)-3-((methylsulfonyl)amino)piperidine-1-carboxylate], the EC50 under setting [2] amounted to 2 nM. Under setting [3], this compound returned an Emax at 30 µM of 114%.
In turn, `CC(=O)N1CCC[C@H](NS(C)(=O)=O)[C@@H]1CO[C@H]1CC[C@@H](c2cc(F)cc(F)c2)CC1` [Example 8, N-((2R,3S)-1-acetyl-2-(((cis-4-(3,5-difluorophenyl)cyclohexyl)oxy)methyl)piperidin-3-yl)methanesulfonamide] displayed a concentration giving a half-maximal response (EC50) under setting [2] of 5.6 nM. The compound further displayed a maximal response (Emax) at 30 µM under setting [3] of 96%.

Source of the values: patent publication US10287305B2, “Substituted piperidine compound and use thereof” (Takeda Pharmaceutical Company Limited, priority 2016, dated 2019).
